The test system of the assay is MV-4-11 cells. In words: Gene expression microarray analysis (Affymetrix PrimeView) and GSEA. It counts as cell-based, human. Details: RFU PODN (11730768_x_at) / Fold change /veh PODN (11730768_x_at) / RFU LINC00158 (11744669_a_at) / Fold change /veh LINC00158 (11744669_a_at) / RFU DUSP10 (11751237_a_at) / Fold change /veh DUSP10 (11751237_a_at) / RFU ID3 (11757404_x_at) / Fold change /veh ID3 (11757404_x_at) / RFU PLEKHG5 (11737974_s_at) / Fold change /veh PLEKHG5 (11737974_s_at) / RFU LRRC4B (11730491_at) / Fold change /veh LRRC4B (11730491_at) / RFU GIMAP4 (11747438_a_at) / Fold change /veh GIMAP4 (11747438_a_at) / RFU KRT8 (11758183_x_at) / Fold change /veh KRT8 (11758183_x_at) / RFU CNN1 (11734310_a_at) / Fold change /veh CNN1 (11734310_a_at) / RFU VPS37D (11726825_at) / Fold change /veh VPS37D (11726825_at) / RFU C10orf10 (11716522_x_at) / Fold change /veh C10orf10 (11716522_x_at) / RFU KIR2DL2 /// KIR2DL4 /// KIR2DL5A /// KIR2DL5B /// KIR2DS1 /// KIR2DS2 /// KIR2DS3 /// KIR2DS4 /// KIR3DL3 /// KIR3DL3 /// KIR3DS1 (11738374_at) / Fold change /veh KIR2DL2 /// KIR2DL4 /// KIR2DL5A /// KIR2DL5B /// KIR2DS1 /// KIR2DS2 /// KIR2DS3 /// KIR2DS4 /// KIR3DL3 /// KIR3DL3 /// KIR3DS1 (11738374_at) / RFU C1QL1 (11718748_at) / Fold change /veh C1QL1 (11718748_at) / RFU TMPRSS4 (11747572_a_at) / Fold change /veh TMPRSS4 (11747572_a_at) / RFU HAMP (11756126_x_at) / Fold change /veh HAMP (11756126_x_at) / RFU RNFT2 (11725882_a_at) / Fold change /veh RNFT2 (11725882_a_at) / RFU NR4A2 (11747474_a_at) / Fold change /veh NR4A2 (11747474_a_at) / RFU ABCC12 (11746883_a_at) / Fold change /veh ABCC12 (11746883_a_at) / RFU TMEM136 (11760407_x_at) / Fold change /veh TMEM136 (11760407_x_at) / RFU CLDN22 /// WWC2 (11732394_at) / Fold change /veh CLDN22 /// WWC2 (11732394_at) / RFU HLA-DPB1 (11760878_x_at) / Fold change /veh HLA-DPB1 (11760878_x_at) / RFU SPINT1 (11716480_a_at) / Fold change /veh SPINT1 (11716480_a_at) / RFU GAP43 (11754022_s_at) / Fold change /veh GAP43 (11754022_s_at) / RFU A4GNT (11735810_at) / Fold change /veh A4GNT (11735810_at) / RFU PRB3 (11715151_x_at) / Fold change /veh PRB3 (11715151_x_at) / RFU TUBB4B (11761932_at) / Fold change /veh TUBB4B (11761932_at) / RFU CAPN14 (11732068_a_at) / Fold change /veh CAPN14 (11732068_a_at) / RFU TMCC2 (11721928_a_at) / Fold change /veh TMCC2 (11721928_a_at) / RFU IRGQ (11745062_a_at) / Fold change /veh IRGQ (11745062_a_at) / RFU FAM174B (11720279_a_at) / Fold change /veh FAM174B (11720279_a_at) / RFU TMPRSS4 (11748680_a_at) / Fold change /veh TMPRSS4 (11748680_a_at) / RFU FAM212B (11763350_a_at) / Fold change /veh FAM212B (11763350_a_at) / RFU PLEKHG5 (11743358_a_at) / Fold change /veh PLEKHG5 (11743358_a_at) / RFU ZSCAN30 (11745921_a_at) / Fold change /veh ZSCAN30 (11745921_a_at) / RFU CMKLR1 (11741424_a_at) / Fold change /veh CMKLR1 (11741424_a_at) / RFU LOC101060620 /// MAPK8IP1 (11723275_at) / Fold change /veh LOC101060620 /// MAPK8IP1 (11723275_at) / RFU SPTSSB (11747773_x_at) / Fold change /veh SPTSSB (11747773_x_at) / RFU PRSS12 (11739890_at) / Fold change /veh PRSS12 (11739890_at) / RFU BIN1 (11741810_x_at) / Fold change /veh BIN1 (11741810_x_at) / RFU WNT11 (11732464_a_at) / Fold change /veh WNT11 (11732464_a_at) / RFU C10orf10 (11716521_a_at) / Fold change /veh C10orf10 (11716521_a_at) / RFU C5orf56 (11738089_at) / Fold change /veh C5orf56 (11738089_at) / RFU CYB561 (11721691_x_at) / Fold change /veh CYB561 (11721691_x_at) / RFU ANKRD19P (11752326_a_at) / Fold change /veh ANKRD19P (11752326_a_at) / RFU OR2T12 /// OR2T33 /// OR2T8 (11738714_s_at) / Fold change /veh OR2T12 /// OR2T33 /// OR2T8 (11738714_s_at) / RFU VCAN (11748164_a_at) / Fold change /veh VCAN (11748164_a_at) / RFU JSRP1 (11732532_at) / Fold change /veh JSRP1 (11732532_at) / RFU KRTAP10-11 (11738290_x_at) / Fold change /veh KRTAP10-11 (11738290_x_at) / RFU MYO3A (11730013_a_at) / Fold change /veh MYO3A (11730013_a_at) / RFU EBF3 (11725865_a_at) / Fold change /veh EBF3 (11725865_a_at) / RFU CAMK2N1 (11719241_x_at) / Fold change /veh CAMK2N1 (11719241_x_at) / RFU C5orf56 (11738088_a_at) / Fold change /veh C5orf56 (11738088_a_at) / RFU OLFML3 (11715873_a_at) / Fold change /veh OLFML3 (11715873_a_at) / RFU LOC100653217 /// NTM (11731650_a_at) / Fold change /veh LOC100653217 /// NTM (11731650_a_at) / RFU MAPK11 (11762145_a_at) / Fold change /veh MAPK11 (11762145_a_at) / RFU FIZ1 (11724087_x_at) / Fold change /veh FIZ1 (11724087_x_at) / RFU OASL (11726364_x_at) / Fold change /veh OASL (11726364_x_at) / RFU SOX15 (11748057_x_at) / Fold change /veh SOX15 (11748057_x_at) / RFU CD79A (11719716_a_at) / Fold change /veh CD79A (11719716_a_at) / RFU HIST1H1D (11736915_at) / Fold change /veh HIST1H1D (11736915_at) / RFU CASKIN2 (11723855_a_at) / Fold change /veh CASKIN2 (11723855_a_at) / RFU LOC730098 (11760151_x_at) / Fold change /veh LOC730098 (11760151_x_at) / RFU OR4N2 (11742367_at) / Fold change /veh OR4N2 (11742367_at) / RFU PRRT2 (11749266_a_at) / Fold change /veh PRRT2 (11749266_a_at) / RFU SNX32 (11753110_a_at) / Fold change /veh SNX32 (11753110_a_at) / RFU CDHR5 (11726645_a_at) / Fold change /veh CDHR5 (11726645_a_at) / RFU RCAN1 (11760418_a_at) / Fold change /veh RCAN1 (11760418_a_at) / RFU FAM167A (11723789_a_at) / Fold change /veh FAM167A (11723789_a_at) / RFU FAM26E (11764081_at) / Fold change /veh FAM26E (11764081_at) / RFU ISYNA1 (11749810_s_at) / Fold change /veh ISYNA1 (11749810_s_at) / RFU ACY1 (11761880_at) / Fold change /veh ACY1 (11761880_at) / RFU 11764098_at / Fold change /veh 11764098_at / RFU SAMD14 (11745864_x_at) / Fold change /veh SAMD14 (11745864_x_at) / RFU NPB (11741838_a_at) / Fold change /veh NPB (11741838_a_at) / RFU TMPRSS6 (11731388_a_at) / Fold change /veh TMPRSS6 (11731388_a_at) / RFU KRTAP10-2 (11738614_at) / Fold change /veh KRTAP10-2 (11738614_at) / RFU ARHGAP8 /// PRR5-ARHGAP8 (11727945_x_at) / Fold change /veh ARHGAP8 /// PRR5-ARHGAP8 (11727945_x_at) / RFU KRTAP5-7 /// NADSYN1 (11734609_at) / Fold change /veh KRTAP5-7 /// NADSYN1 (11734609_at) / RFU RASL12 (11751679_a_at) / Fold change /veh RASL12 (11751679_a_at) / RFU CDKN2B (11736163_a_at) / Fold change /veh CDKN2B (11736163_a_at) / RFU PRF1 (11729649_at) / Fold change /veh PRF1 (11729649_at) / RFU, ZNF638 /// ZNF638-IT1 / Fold change vs veh, ZNF638 /// ZNF638-IT1 / RFU, PANK3 / Fold change vs veh, PANK3 / RFU, SH3YL1 / Fold change vs veh, SH3YL1 / RFU, ZEB2 / Fold change vs veh, ZEB2 / RFU, NRIP1 / Fold change vs veh, NRIP1 / RFU, PTTG1IP / Fold change vs veh, PTTG1IP / RFU, CAPN2 / Fold change vs veh, CAPN2 / RFU, MED14 / Fold change vs veh, MED14 / RFU, SNORA58 / Fold change vs veh, SNORA58 / RFU, C1orf63 / Fold change vs veh, C1orf63 / RFU, LRRFIP1 / Fold change vs veh, LRRFIP1 / RFU, NDUFAF7 / Fold change vs veh, NDUFAF7 / RFU, SLC12A2 / Fold change vs veh, SLC12A2 / RFU, IBTK / Fold change vs veh, IBTK / RFU, ESF1 / Fold change vs veh, ESF1 / Fold change vs veh, TMEM50B / RFU, TAOK1 / Fold change vs veh, TAOK1 / RFU, ACBD3 / Fold change vs veh, ACBD3 / RFU, TMA16 / Fold change vs veh, TMA16 / RFU, RWDD3 / Fold change vs veh, RWDD3 / RFU, BCAT1 / Fold change vs veh, BCAT1 / RFU, EDEM3 / Fold change vs veh, EDEM3 / RFU, TMEM33 / Fold change vs veh, TMEM33 / RFU, WDR75 / Fold change vs veh, WDR75 / RFU, AHCTF1 / Fold change vs veh, AHCTF1 / RFU, TFRC / Fold change vs veh, TFRC / RFU, ZDHHC17 / Fold change vs veh, ZDHHC17 / RFU, NOM1 / Fold change vs veh, NOM1 / RFU, ARL8B / Fold change vs veh, ARL8B / RFU, ZBTB11 / Fold change vs veh, ZBTB11 / RFU, TAMM41 / Fold change vs veh, TAMM41 / RFU, KIAA1704 /// LOC100996395 / Fold change vs veh, KIAA1704 /// LOC100996395 / RFU, ING1 / Fold change vs veh, ING1 / RFU, TRMT61B / Fold change vs veh, TRMT61B / RFU, FUBP3 / Fold change vs veh, FUBP3 / RFU, TP53 / Fold change vs veh, TP53 / RFU, TNKS2 / Fold change vs veh, TNKS2 / RFU, ZFP14 / Fold change vs veh, ZFP14 / RFU, ACTR2 / Fold change vs veh, ACTR2 / RFU, PPP3R1 / Fold change vs veh, PPP3R1 / RFU, PIK3R1 / Fold change vs veh, PIK3R1 / RFU, HNRNPA1 / Fold change vs veh, HNRNPA1 / RFU, RNF170 / Fold change vs veh, RNF170 / RFU, ZNF28 / Fold change vs veh, ZNF28 / RFU, RNGTT / Fold change vs veh, RNGTT / RFU, OGT / Fold change vs veh, OGT / RFU, BRD1 / Fold change vs veh, BRD1 / RFU, MARS / Fold change vs veh, MARS / RFU, ZNF655 / Fold change vs veh, ZNF655 / RFU, FAHD1 / Fold change vs veh, FAHD1 / RFU, BDP1 / Fold change vs veh, BDP1 / RFU, LRRCC1 / Fold change vs veh, LRRCC1 / RFU, ARID1A / Fold change vs veh, ARID1A / RFU, ZNF146 / Fold change vs veh, ZNF146 / RFU, ZNF330 / Fold change vs veh, ZNF330 / RFU, GPN3 / Fold change vs veh, GPN3 / RFU, C9orf123 / Fold change vs veh, C9orf123 / RFU, N4BP2L2 / Fold change vs veh, N4BP2L2 / RFU, ARFIP1 / Fold change vs veh, ARFIP1 / RFU, FAM179B / Fold change vs veh, FAM179B / RFU, BCL10 / Fold change vs veh, BCL10 / RFU, UHRF1BP1L / Fold change vs veh, UHRF1BP1L / RFU, BET1 / Fold change vs veh, BET1 / RFU, CNOT2 / Fold change vs veh, CNOT2 / RFU, ZNF268 / Fold change vs veh, ZNF268 / Fold change vs veh, ZNF507 / RFU, DGCR2 / Fold change vs veh, DGCR2 / RFU, WDSUB1 / Fold change vs veh, WDSUB1 / Fold change vs veh, HSP90B1 /// MIR3652 / RFU, ADSS / Fold change vs veh, ADSS / RFU, GK / Fold change vs veh, GK / RFU, ZNF148 / Fold change vs veh, ZNF148 / RFU, TAF9 / Fold change vs veh, TAF9 / RFU, SLC1A5 / Fold change vs veh, SLC1A5 / RFU, SLMO2 / Fold change vs veh, SLMO2 / RFU, ABCC4 / Fold change vs veh, ABCC4 / RFU, LOC101060439 /// RAP1B / Fold change vs veh, LOC101060439 /// RAP1B / RFU, RFX7 / Fold change vs veh, RFX7 / RFU, GTPBP10 / Fold change vs veh, GTPBP10 / RFU, CNEP1R1 / Fold change vs veh, CNEP1R1 / RFU, BIVM-ERCC5 /// ERCC5 / Fold change vs veh, BIVM-ERCC5 /// ERCC5 / RFU, ILF3 / Fold change vs veh, ILF3 / RFU 11762660_at / Fold change /veh 11762660_at / RFU VCAN (11757783_s_at) / Fold change /veh VCAN (11757783_s_at) / RFU DDX43 (11728927_at) / Fold change /veh DDX43 (11728927_at) / RFU KRT8 (11758188_x_at) / Fold change /veh KRT8 (11758188_x_at) / RFU NKD1 (11759106_at) / Fold change /veh NKD1 (11759106_at) / RFU SRD5A1 (11742802_a_at) / Fold change /veh SRD5A1 (11742802_a_at) / RFU TPSAB1 /// TPSB2 (11721975_s_at) / Fold change /veh TPSAB1 /// TPSB2 (11721975_s_at) / RFU GSTM3 (11746129_a_at) / Fold change /veh GSTM3 (11746129_a_at) / RFU IL23R (11737362_x_at) / Fold change /veh IL23R (11737362_x_at) / RFU TMEM51 (11727254_a_at) / Fold change /veh TMEM51 (11727254_a_at) / RFU PIWIL2 (11732686_x_at) / Fold change /veh PIWIL2 (11732686_x_at) / RFU ORM1 (11744905_x_at) / Fold change /veh ORM1 (11744905_x_at) / RFU CCDC152 (11743942_at) / Fold change /veh CCDC152 (11743942_at) / RFU ECM1 (11717891_a_at) / Fold change /veh ECM1 (11717891_a_at) / RFU IL23R (11748794_a_at) / Fold change /veh IL23R (11748794_a_at) / RFU TNFAIP8L3 (11732012_x_at) / Fold change /veh TNFAIP8L3 (11732012_x_at) / RFU MBOAT4 (11741988_at) / Fold change /veh MBOAT4 (11741988_at) / RFU 11764193_at / Fold change /veh 11764193_at / RFU TMEM53 (11763286_at) / Fold change /veh TMEM53 (11763286_at) / RFU MAGEB2 (11727129_at) / Fold change /veh MAGEB2 (11727129_at) / RFU TMEM200A (11744735_a_at) / Fold change /veh TMEM200A (11744735_a_at) / RFU CCDC152 (11751479_a_at) / Fold change /veh CCDC152 (11751479_a_at) / RFU FAM211A (11726209_a_at) / Fold change /veh FAM211A (11726209_a_at) / RFU RGS16 (11746705_a_at) / Fold change /veh RGS16 (11746705_a_at) / RFU VCAN (11755009_s_at) / Fold change /veh VCAN (11755009_s_at) / RFU RHOB (11743442_s_at) / Fold change /veh RHOB (11743442_s_at) / RFU RGS16 (11720943_a_at) / Fold change /veh RGS16 (11720943_a_at) / RFU RGS16 (11720944_at) / Fold change /veh RGS16 (11720944_at) / RFU, VPS4B / Fold change vs veh, VPS4B / RFU, CREB1 / Fold change vs veh, CREB1 / RFU, DNAJC13 / Fold change vs veh, DNAJC13 / RFU, GNAQ / Fold change vs veh, GNAQ / RFU, CDK5R1 / Fold change vs veh, CDK5R1 / RFU, ZRANB3 / Fold change vs veh, ZRANB3 / RFU, CUL4A / Fold change vs veh, CUL4A / RFU, CCNY / Fold change vs veh, CCNY / RFU, UFL1 / Fold change vs veh, UFL1 / RFU, COG3 / Fold change vs veh, COG3 / RFU, DIAPH2 / Fold change vs veh, DIAPH2 / RFU, SKA2 / Fold change vs veh, SKA2 / RFU, AFF3 / Fold change vs veh, AFF3 / RFU, LMF1 / Fold change vs veh, LMF1 / RFU, IPO11 / Fold change vs veh, IPO11 / RFU, DFFB / Fold change vs veh, DFFB / RFU, FOXP1 / Fold change vs veh, FOXP1 / RFU, CARD8 / Fold change vs veh, CARD8 / RFU, STRN3 / Fold change vs veh, STRN3 / RFU, ADK / Fold change vs veh, ADK / RFU, RASSF2 / Fold change vs veh, RASSF2 / RFU, WIPF1 / Fold change vs veh, WIPF1 / RFU, LARP1B / Fold change vs veh, LARP1B / RFU, RASA1 / Fold change vs veh, RASA1 / RFU, RB1 / Fold change vs veh, RB1 / RFU, PPFIA1 / Fold change vs veh, PPFIA1 / RFU, MAT2A / Fold change vs veh, MAT2A / RFU, CCT5 / Fold change vs veh, CCT5 / RFU, WDR92 / Fold change vs veh, WDR92 / RFU, CUX1 / Fold change vs veh, CUX1 / RFU, TTC7A / Fold change vs veh, TTC7A / RFU, TMEM135 / Fold change vs veh, TMEM135 / RFU, DEPTOR / Fold change vs veh, DEPTOR / RFU, CPM / Fold change vs veh, CPM / RFU, DNAJB6 / Fold change vs veh, DNAJB6 / RFU, CACNA2D3 / Fold change vs veh, CACNA2D3 / RFU, DTX4 / Fold change vs veh, DTX4 / RFU, TFCP2 / Fold change vs veh, TFCP2 / RFU, GMCL1 /// GMCL1P1 / Fold change vs veh, GMCL1 /// GMCL1P1 / RFU, AEBP2 / Fold change vs veh, AEBP2 / RFU, SNHG1 /// SNORD22 /// SNORD25 /// SNORD26 /// SNORD27 /// SNORD28 /// SNORD29 /// SNORD31 / Fold change vs veh, SNHG1 /// SNORD22 /// SNORD25 /// SNORD26 /// SNORD27 /// SNORD28 /// SNORD29 /// SNORD31 / Fold change (Aza/veh), C12orf56 (ProbeSet 11735607_a_at) / Fold change (ACY-1035/veh), C12orf56 (ProbeSet 11735607_a_at) / Fold change (Aza/veh), FGFR1OP (ProbeSet 11751329_s_at) / Fold change (ACY-1035/veh), FGFR1OP (ProbeSet 11751329_s_at) / Fold change (Aza/veh), VPS36 (ProbeSet 11739960_a_at) / Fold change (ACY-1035/veh), VPS36 (ProbeSet 11739960_a_at) / RFU SYPL1 (11715823_x_at) / Fold change /veh SYPL1 (11715823_x_at) / RFU IGFBP7 (11715501_s_at) / Fold change /veh IGFBP7 (11715501_s_at) / RFU REEP3 (11722064_at) / Fold change /veh REEP3 (11722064_at) / RFU IGLL1 (11728026_x_at) / Fold change /veh IGLL1 (11728026_x_at): dose or concentration left out as unconfirmed. As to conditions: MV-4-11 cells, 48 hours.

For the compound `Nc1ccc(-c2cccs2)cc1NC(=O)c1ccc2c(c1)cc(C1CC1)n2CCN1CCOCC1` [ACY-1035], the “Fold change /veh RGS16 (11746705_a_at)” value is reported as 1.06.

The record behind these values is PMC5218480 (PLoS ONE, 2017).
